# Marks after values point to notes of the source that are not given here.
# How the values were obtained:
# [1] = test system: Glutathione S-Transferase; test: Glutathione S-transferase (GST) activity in tissue cytosol of treated mice, CDNB substrate; assay type: in vivo, Female A/J mice; settings: for Ratio Test/con (GST): gavage; for GST act.: gavage in corn oil
# Protocol: The activity of cytosolic was assayed according to the method of Habig et al. using 1-chloro-2,4-dinitrobenzene (CDNB) as the substrate. Habig et al, J. Biol. Chem. 249:7130-7139 (1974). The complete solution contains, in a total volume of 2.0 mL, 0.1 M phosphate buffer, pH 6.5, 5 mM glutathione, 1 mM CDNB, and 20 μL of the cytosol. The reaction was monitored at 340 nm in a Beckman Model DU65 UV-VIS spectrophotometer. Assays were performed at 30° C. Complete assay mixture without the cytosolic enzyme was used as the reference blank. Data as analyzed by the Student's “t” test and P values were obtained in comparison to the control.
# GSH = test: Glutathione (GSH) concentration in tissues of treated mice, HPLC; assay type: in vivo, Female A/J mice; settings: for Ratio Test/con (GSH): gavage; for GSH conc.: gavage in corn oil
# Protocol: GSH was quantitated by modification of the procedure Siller-Cepeda et al. Plant Cell Physiol. 32:1179-1185 (1991). Aliquots of tissue homogenates were mixed with equal volumes of 20% PCA containing 2 mM BPDS. Vortex, centrifuge at 7800×g for 15 minutes at 4° C. and 250 μl supernatant transferred into a microfuge tube containing 25 μl of γ-glu-glu as internal standard. The samples were carboxymethylated with 25 μl of 100 mM iodoacetic acid dissolved in 0.2 mM m-cresol purple sodium salt solution. The pH of the solution was adjusted to 9-10 by adding 350 μl of KOH (2M)-KHCO3 (2.4 M) mixture and incubated in the dark for 15 minutes. After carboxymethylation, the samples were derivatized with 500 μl of 1% dinitrofluorobenzene (DNFB) and kept in the dark at 4° C. overnight. The samples were centrifuged at 13,000×g for 15 minutes, filtered through 0.2 μm filter, and were analyzed with a SHIMADZU two-pump gradient HPLC system. Samples were injected by a SHIMADZU SIL-10AV Autoinjector onto a Varian 3-aminopropyl MICROSORB-MV column (4.6×250 mm) operated at ambient temperature with a flow rate of 1 ml/min. Absorbance of the dinitrophenyl derivatives was monitored at 365 nm. The amount of GSH was calculated from a standard curve using γ-glu-glu as internal standard.
# [2] = test system: UDP-Glucuronosyltransferase (UDP-GT); test: UDP-glucuronosyltransferase (UDP-GT) activity in liver microsomes of treated mice, o-aminophenol substrate; assay type: in vivo, Female A/J mice; settings: for Ratio Test/con (UDP-GT): gavage; for UDP-GT activity (column head prints GSH conc.): gavage in corn oil
# Protocol: Microsomal samples were assayed for enzymatic conjugation by modifying the procedure of Zakim et al., Methods of Biochemical Analysis, ed. David Glick, 21:1-37, (1973). using o-aminophenol as the substrate. The complete assay solution contains, in a total volume of 500 μl, 0.25 M phosphate buffer (pH 7.6), 0.002 M o-aminophenol, 0.05 M UDPGA, 0.125 M magnesium chloride and 100 μl microsomes. The mixture was incubated for 30 minutes. Reactions were stopped by the addition of 500 μl of TCA-sodium phosphate reagent. The precipitated protein was removed, 100 μl of 0.05% sodium nitrite was added to 950 μl of the supernatent solution and allowed to stand for 5 minutes. 100 μl of 0.5% ammonium sulfamate was added, after 5 minutes. 100 μl of 0.12% N-(-1-naphthyl)ethylenediamine dihydrochloride was added and incubated for 2 hours in the dark; and the difference in the optical density between the blanks and the samples were recorded at 555 nm in a Beckman model DU65 UV-VIS spectrophotometer. The UDP-GT activity was calculated using the extinction coefficient 29 mM-1 cm-1 for the coupled product.
# aberrant crypts (AC) = test: Inhibition of DMH-induced aberrant crypt (AC) formation in colon; assay type: in vivo, Female CF1 mice; settings: high dose 0.04 mmol/kg body weight, gavage, without DMH
# Description: Precancerous lesions called aberrant crypts (AC) are used as a marker for colon carcinogenesis. Mice and rats, when exposed to colon-specific carcinogen, develop preneoplastic changes in colon crypts which leads to malignancy through dysplasia-carcinoma sequence. […] McLellan et al., Cancer Res. 48:6183-6186 (1988); McLellan et al., Cancer Res. 48:2311-2315 (1988).
# The effect of colon-specific carcinogenesis is typically seen in the induction of AC formation in less than two weeks. AC formation is dose dependent and can be quantitated without elaborate instrumentation. In view of the short time-frame required to get quantifiable results, this bio-assay is a useful prescreening tool for the evaluation of chemopreventative efficacy of compounds that are effective against colon cancer. The protocol for aberrant crypts is shown below:
# Female CF1 mice, 3 weeks of age, were purchased from Harlan Sprague-Dawley, Indianapolis, 1N. They were housed, 5 mice per cage, in temperature and humidity-controlled animal quarters with 12 hours light/dark cycle and fed AIN 76A semipurified diet until the ent of the experiment. Water was given ad libitim. The animals were separated into experimental and control groups. The test compounds 0.03-0.04 mmol/kg body weight dissolved in 0.3 mL corn oil, were given by gavage one per day for 8 days. One hour after the inhibitors administration on the 4th and 8th days, 0.4 mg of DMH in 0.2 mL of 0.001 M EDTA, adjusted to pH 6.5 with sodium bicarbonate, was given by gavage. Starting on the 9th day, the inhibitors were given once every other day for an additional 3 weeks. This regimen of inhibitor administration ensures the coverage both the initiation and post initiation periods of carcinogen exposure.
# At the end of the 3 week period, the animals were sacrificed and the colons removed. The starting and terminating weights of the animals were recorded. The procedures for the determination of aberrant crypts were those reported by Bird (Cancer Letters 37:147-151 (1987)). The mouse colon including the caecum was removed, rinsed with PBS, and opened longitudinally. The colon contents was removed by washing with PBS. The colon was spread mucosal side up on a piece of filter paper and fixed in buffered formalin overnight. It was then stained with 0.2% methylene blue in PBS for 60 min. The AC foci was read under light microscope. The AC are topographically distinguished by their increased size, increased pericryptal zone, and thicker and deeply stained epithelial lining compared to normal crypts. The number of foci and AC in the colorectal and caecal parts of the colon were recorded separately. The significance of the data was determined by the analysis of variance method. The significance of the incidence of aberrant crypts bearing animals was analyzed by the X^2 test. The aberrant crypts were examined histologically to verify the dysplastic nature of the changes in animals treated with carcinogens and those treated with carcinogens and inhibitors.
# [3] = colon, dose 0.02 mmol/Kg body weight
# [4] = colon, dose 0.04 mmol/Kg body weight
# [5] = forestomach, dose 0.02 mmol/Kg body weight
# [6] = forestomach, dose 0.04 mmol/Kg body weight
# [7] = liver, dose 0.02 mmol/Kg body weight
# [8] = liver, dose 0.04 mmol/Kg body weight
# [9] = lung, dose 0.02 mmol/Kg body weight
# [10] = lung, dose 0.04 mmol/Kg body weight
# [11] = small intestinal mucosa, dose 0.02 mmol/Kg body weight
# [12] = small intestinal mucosa, dose 0.04 mmol/Kg body weight
smiles,measurement,setting,value
"N#C[Se]C([Se]C#N)c1cccs1 [(1) TMSC, 2-thienyl methylene selenocyanate]",melting point,,48 to 50 °C
"[Se]=C=NCc1ccc(CN=C=[Se])s1 [(6) TDMISC, thienyl-2,5-di-methylene isoselenocyanate]",Ratio Test/con (GST),[1]; [3],1.12
same,GST act.,[1]; [3],0.73 ± 0.026 ^g μmol/min mg protein
same,Ratio Test/con (GST),[1]; [4],1.14
same,GST act.,[1]; [4],0.74 ± 0.04 ^f μmol/min mg protein
same,Ratio Test/con (GST),[1]; [5],0.93
same,GST act.,[1]; [5],1.03 ± 0.20 μmol/min mg protein
same,Ratio Test/con (GST),[1]; [6],1.11
same,GST act.,[1]; [6],1.23 ± 0.35 μmol/min mg protein
same,Ratio Test/con (GST),[1]; [7],1.90
same,GST act.,[1]; [7],2.43 ± 0.46 ^e μmol/min mg protein
same,Ratio Test/con (GST),[1]; [8],2.53
same,GST act.,[1]; [8],3.24 ± 0.39 ^e μmol/min mg protein
same,Ratio Test/con (GST),[1]; [9],1.29
same,GST act.,[1]; [9],0.44 ± 0.04 ^f μmol/min mg protein
same,Ratio Test/con (GST),[1]; [10],1.73
same,GST act.,[1]; [10],0.59 ± 0.29 μmol/min mg protein
same,Ratio Test/con (GST),[1]; [11],2.45
same,GST act.,[1]; [11],0.54 ± 0.11 ^e μmol/min mg protein
same,Ratio Test/con (GST),[1]; [12],2.41
same,GST act.,[1]; [12],0.53 ± 0.03 ^c μmol/min mg protein
same,Ratio Test/con (GSH),GSH; [7],0.95
same,GSH conc.,GSH; [7],3.38 ± 1.11 μmol/gm tissue weight
same,Ratio Test/con (GSH),GSH; [8],1.49
same,GSH conc.,GSH; [8],5.29 ± 1.09 μmol/gm tissue weight
same,Ratio Test/con (GSH),GSH; [11],1.07
same,GSH conc.,GSH; [11],2.26 ± 1.87 μmol/gm tissue weight
same,Ratio Test/con (GSH),GSH; [12],1.76
same,GSH conc.,GSH; [12],3.71 ± 0.31^d μmol/gm tissue weight
same,Ratio Test/con (UDP-GT),[2]; dose 0.02 mmol/Kg body weight,1.50
same,UDP-GT activity (column head prints GSH conc.),[2]; dose 0.02 mmol/Kg body weight,6.08 ± 0.76 ^d nmol/min/mg protein
same,Ratio Test/con (UDP-GT),[2]; dose 0.04 mmol/Kg body weight,1.49
same,UDP-GT activity (column head prints GSH conc.),[2]; dose 0.04 mmol/Kg body weight,7.98 ± 2.49 nmol/min/mg protein
same,% animals,aberrant crypts (AC),0.0%
same,AC/Colon,aberrant crypts (AC),0.00
same,AC/Foci,aberrant crypts (AC),0.00
same,ACF/Colon,aberrant crypts (AC),0.00
same,Total AC,aberrant crypts (AC),0
same,Total ACF,aberrant crypts (AC),0
